From PubChem BioAssay (NCI) come the findings set out here.

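96-well plates; 48 h exposure; 5 concentrations. Endpoints by linear interpolation between flanking doses. Not reached: highest tested concentration assigned. GI50: concentration for 50% inhibition of growth. TGI is the concentration that stops growth completely.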 Some results are limits rather than exact numbers.

Test systems include CCRF-CEM leukemia; DMS 114 small cell lung; KM20L2 colon; LOX IMVI melanoma; NCI-H226 lung; OVCAR-8 ovarian; SNB-78 CNS; U251 CNS; SR leukemia.
Holding throughout (test): NCI anticancer screen, dose series, 48 h

With `O=C1Nc2cc(F)ccc2C1=O`, the TGI in the experiment with CCRF-CEM leukemia, in the experiment on DMS 114 small cell lung, in the experiment with KM20L2 colon, with LOX IMVI melanoma, in the experiment with NCI-H226 lung and with OVCAR-8 ovarian was above 100 µM each time. For the same molecule, the TGI in the experiment with SNB-78 CNS and with U251 CNS was above 100 µM throughout.
In the case of `C[CH2][Sn]([CH2]C)([O]C(=O)c1ccc(F)cc1)[O]C(=O)c1ccc(F)cc1`, the GI50 is 8.75 µM in the experiment on CCRF-CEM leukemia; 18.8 µM in the experiment with DMS 114 small cell lung; 72.6 µM in the experiment with KM20L2 colon; 18 µM in the experiment on LOX IMVI melanoma; 15.5 µM in the experiment on NCI-H226 lung; above 52.9 µM in the experiment on OVCAR-8 ovarian. In addition, the GI50 in the experiment with SNB-78 CNS was 20 µM; in the experiment on U251 CNS, 19 µM. Further, the TGI is 31.4 µM in the experiment with CCRF-CEM leukemia; 39.9 µM in the experiment on DMS 114 small cell lung; above 100 µM in the experiment with KM20L2 colon; 37.9 µM with LOX IMVI melanoma; 29.4 µM in the experiment on NCI-H226 lung; above 79.2 µM in the experiment on OVCAR-8 ovarian. The TGI in the experiment on SNB-78 CNS turned out to be 37.9 µM; with U251 CNS it was 42 µM.
Consider `NC(=O)c1ccc(Cl)c([N+](=O)[O-])c1`, for which the TGI in the experiment with CCRF-CEM leukemia, in the experiment with DMS 114 small cell lung, in the experiment with KM20L2 colon, in the experiment on LOX IMVI melanoma, in the experiment with NCI-H226 lung and in the experiment with OVCAR-8 ovarian was above 100 µM each time. Also, the TGI with SNB-78 CNS and in the experiment on U251 CNS was above 100 µM each time.
In the case of `COC(=O)CC[C@]12C[C@]13CC[C@]1(C)C4C(C)C[C@]5(CC(C)C(=O)O5)OC4CC1(C)C3CCC2C(C)(C)O` (stereo partly drawn), the TGI in the experiment with DMS 114 small cell lung, with KM20L2 colon, in the experiment on LOX IMVI melanoma, in the experiment on OVCAR-8 ovarian, in the experiment with SNB-78 CNS and in the experiment with SR leukemia was above 100 µM each time. The TGI in the experiment on U251 CNS was above 100 µM.
For the molecule `CCC(CO)Nc1nc2c(c(=O)n(C)c(=O)n2C)n1CCO` (stereo not drawn), the TGI in the experiment on KM20L2 colon was above 100 µM; with NCI-H226 lung, above 100 µM; with OVCAR-8 ovarian it was above 100 µM; in the experiment on SNB-78 CNS, 53.5 µM; in the experiment on SR leukemia, above 100 µM; with U251 CNS it was above 100 µM.
Turning to `Nc1c2ccccc2nc2c(C(=O)Nc3ccc(S(N)(=O)=O)cc3)cccc12`, the TGI with CCRF-CEM leukemia, in the experiment on DMS 114 small cell lung, in the experiment with KM20L2 colon, in the experiment on LOX IMVI melanoma, with NCI-H226 lung and in the experiment with OVCAR-8 ovarian was above 100 µM in each case. Besides, the TGI with SNB-78 CNS and in the experiment on U251 CNS was above 100 µM each time.
For `c1ccc(OC2=NC3=S(S2)SC(Oc2ccccc2)=N3)cc1`, the TGI was found to be 28.9 µM in the experiment on CCRF-CEM leukemia; 41 µM with DMS 114 small cell lung; 45 µM in the experiment on KM20L2 colon; 43.4 µM with LOX IMVI melanoma; 90.4 µM in the experiment with NCI-H226 lung; 57.6 µM in the experiment with OVCAR-8 ovarian. In addition, the TGI in the experiment on SNB-78 CNS stood at 48.1 µM; in the experiment with U251 CNS, 26.8 µM.
Consider `CC(C)(C)N=NC(C)(C)N=C=O`, for which the TGI with CCRF-CEM leukemia, in the experiment with DMS 114 small cell lung, in the experiment with KM20L2 colon, in the experiment with LOX IMVI melanoma, in the experiment with NCI-H226 lung and in the experiment with OVCAR-8 ovarian was above 100 µM in each case. For the same molecule, the TGI with SNB-78 CNS, with SR leukemia and with U251 CNS was above 100 µM in each case.
As to `CC(=O)[O-].N.N.N.N.[Co+3].[O-][Cl+3]([O-])([O-])[O-].[OH3+]`, the GI50 with CCRF-CEM leukemia, with KM20L2 colon, in the experiment on LOX IMVI melanoma, with OVCAR-8 ovarian, in the experiment with SNB-78 CNS and in the experiment with U251 CNS was above 100 µM throughout. For the same molecule, the TGI in the experiment on CCRF-CEM leukemia, with KM20L2 colon, in the experiment on LOX IMVI melanoma, in the experiment with OVCAR-8 ovarian, in the experiment with SNB-78 CNS and with U251 CNS was above 100 µM in each case.
As to `C=C1C[C@@H]2C[C@@H](C)CC(O)[C@]2(CCCN)C1O` (stereo partly drawn), the TGI with CCRF-CEM leukemia, with DMS 114 small cell lung, with KM20L2 colon, in the experiment on LOX IMVI melanoma, in the experiment with NCI-H226 lung and in the experiment with OVCAR-8 ovarian was above 100 µM throughout. The TGI in the experiment on SNB-78 CNS, in the experiment with SR leukemia and in the experiment with U251 CNS was above 100 µM in each case.
In the case of `CC1c2[nH]c3ccccc3c2CCN1O` (stereo not drawn), the TGI in the experiment with CCRF-CEM leukemia, in the experiment on DMS 114 small cell lung, in the experiment with KM20L2 colon, in the experiment on LOX IMVI melanoma, in the experiment on NCI-H226 lung and in the experiment with OVCAR-8 ovarian was above 100 µM each time. In addition, the TGI with SNB-78 CNS and with U251 CNS was above 100 µM throughout.
For the molecule `COc1cc2cnc3c4cc(OCc5ccccc5)ccc4ccc3c2cc1OC`, the TGI in the experiment on CCRF-CEM leukemia is 17.3 µM; with DMS 114 small cell lung, 80.4 µM; with KM20L2 colon, above 100 µM; in the experiment with LOX IMVI melanoma, above 100 µM; in the experiment with NCI-H226 lung, 72.6 µM; with OVCAR-8 ovarian it was above 100 µM. Besides, the results for the TGI with SNB-78 CNS, with SR leukemia and in the experiment with U251 CNS were 65.4 µM, 27.1 µM and above 100 µM, respectively.
Take `O/N=C/c1ccc(O)c(O)c1`: the TGI with CCRF-CEM leukemia, in the experiment with DMS 114 small cell lung, with KM20L2 colon, in the experiment with LOX IMVI melanoma, with NCI-H226 lung and in the experiment on OVCAR-8 ovarian was above 100 µM in each case. The TGI in the experiment on SNB-78 CNS, in the experiment with SR leukemia and in the experiment with U251 CNS was above 100 µM throughout.
`COc1ccc([C@@H]2OC(=O)C3C2C(=O)O[C@H]3c2ccc(OC)c(OC)c2)cc1OC` (stereo partly drawn): the TGI in the experiment with CCRF-CEM leukemia, with DMS 114 small cell lung, with KM20L2 colon, in the experiment with LOX IMVI melanoma, in the experiment with NCI-H226 lung and in the experiment on OVCAR-8 ovarian was above 100 µM throughout. The TGI in the experiment on SNB-78 CNS and with U251 CNS was above 100 µM throughout.
For the molecule `O=C([O-])CC(=O)[O-].[NH-][C@@H]1CCCC[C@H]1[NH-].[Pt+4]`, the GI50 in the experiment on CCRF-CEM leukemia was 4.32 µM; in the experiment with LOX IMVI melanoma it was 15 µM; in the experiment with NCI-H226 lung, 5.9 µM; in the experiment with OVCAR-8 ovarian, 24.5 µM; with SNB-78 CNS, above 100 µM; with U251 CNS it was 17.4 µM. For the same molecule, the TGI was above 100 µM in the experiment with CCRF-CEM leukemia; above 100 µM in the experiment on KM20L2 colon; above 100 µM in the experiment with LOX IMVI melanoma; above 80.6 µM in the experiment with NCI-H226 lung; above 100 µM with OVCAR-8 ovarian; above 100 µM in the experiment with SNB-78 CNS. Moreover, in the experiment with U251 CNS, the TGI is above 83.3 µM.
